21 compounds from ChEMBL document CHEMBL3351605, “Biased multicomponent reactions to develop novel bromodomain inhibitors” (J Med Chem, 2014) can be followed below.

Assay [1] has as its target T1, Bromodomain-containing protein 4 (Homo sapiens, UniProt O60885). In words: Inhibition of BRD4 (unknown origin) by biotinylated-JQ1 based AlphaScreen BRD binding assay.
Assay [2] in a line: Cytotoxicity against BRD4-NUT-expressing human NMC-797 cells assessed as reduction in cell viability after 3 days by ATPlite assay. Format: functional, cell-based. To be noted: NMC-797, 72 h. A general note: ATP-based viability assays read luminescence as a measure of living cells.
In assay [3] the target is T1, Bromodomain-containing protein 4. Nature of the assay: Binding affinity to BRD4 (unknown origin) by isothermal titration […]. (In general: ITC needs no label: the signal is the heat of the interaction.)

In assay [1], `Cc1noc(C)c1-c1ccc(C=O)cc1` displayed an IC50 of 1.7 µM.

`CCOC(=O)C(C)N(Cc1ccc(-c2c(C)noc2C)cc1)C(=O)c1ccc(OC)cc1` (centres undefined): the IC50 in assay [1] was found to be 16.3 µM. Consider `CCOC(=O)[C@]1(C)NC(c2ccc(-c3c(C)noc3C)cc2)C2C(=O)N(CC)C(=O)C21` (some centres undefined), for which, in assay [2], the 50% effective concentration (EC50) amounted to 9.42 µM. On the same count and under the same terms, the result for `CCCCN1C(=O)c2ccccc2NC(=O)C1c1ccc(-c2c(C)noc2C)c(OC)c1` (centres undefined) reads 9.91 µM; that for `Cc1noc(C)c1-c1cccc(C2Nc3ccccc3NC3=C2C(=O)OC3)c1` (centres undefined), more than 100 µM.

On to `COc1ccc(-c2cc(-c3ccc(-c4c(C)noc4C)cc3)nc(-c3ccccc3)n2)cc1`, for which the EC50 in assay [2] is more than 100 µM. This compound registered an IC50 in assay [1] of 69.9 µM. On to `Cc1ccc2nc(-c3ccc(-c4c(C)noc4C)cc3)c(NCc3ccccc3)n2c1`, for which the IC50 in assay [1] is more than 100 µM. Consider `Cc1noc(C)c1-c1ccc(-c2nc3ccc(Cl)cn3c2NCc2ccccc2)cc1`, for which, in assay [2], the EC50 was 18.4 µM. For `Cc1noc(C)c1-c1ccc(-c2nc3cnccn3c2NCc2ccccc2)cc1`, in assay [2], the EC50 was 49.1 µM.

For the compound `Cc1noc(C)c1-c1ccc(-c2nc3ccccn3c2NC2CCCCC2)cc1`, the EC50 in assay [2] worked out at 5.07 µM. Consider `COc1ccc(Nc2c(-c3ccc(-c4c(C)noc4C)cc3)nc3ccccn23)cc1`, for which the EC50 in assay [2] was determined as 7.36 µM. Same read-out and setting: the result for `COc1ccc(Nc2c(-c3ccc(-c4c(C)noc4C)cc3)nc3ccc(Cl)cn23)cc1` reads 20.7 µM; that for `COc1ccc(Nc2c(-c3ccc(-c4c(C)noc4C)cc3)nc3cc(OC)ncn23)cc1`, 11.8 µM. In assay [1], `COc1ccc(Nc2c(-c3ccc(-c4c(C)noc4C)cc3)nn3ccncc23)cc1` registered an IC50 of 7.86 µM.

Take `Cc1noc(C)c1-c1ccc(-c2nc3ccccn3c2NC(C)(C)C)cc1`: the EC50 in assay [2] was found to be 2.04 µM. In turn, `Cc1noc(C)c1-c1ccc(-c2nc3cnccn3c2NC(C)(C)C)cc1` returned a Kd in assay [3] of 0.55 µM. For the same compound, the EC50 in assay [2] is 0.724 µM. The compound further displayed an IC50 in assay [1] of 0.637 µM. `Cc1noc(C)c1-c1ccc(-c2nc3ccc(Cl)cn3c2NC(C)(C)C)cc1`: the EC50 in assay [2] stood at 2.19 µM. Same read-out and setting: the result for `Cc1noc(C)c1-c1ccc(-c2nc3cnccn3c2NC(C)C)cc1` reads 0.494 µM. `Cc1noc(C)c1-c1ccc(-c2nc3cnccn3c2NC(C)(C)C)cn1`: the EC50 in assay [2] is more than 100 µM. The same measure, in the same setting: the result for `Cc1noc(C)c1-c1ccc(-c2nc3cnccn3c2NC(C)(C)C)nc1` reads 8.29 µM; that for `Cc1noc(C)c1-c1ccc(-c2nc3cnccn3c2NC(C)(C)C)cc1F`, 12.8 µM.

As a reminder, the IC50 is the concentration needed to halve the response being measured. As usually defined, the EC50 is the concentration giving half of the maximal effect. Broadly, the Kd is the concentration at which binding is half-saturated. Lower therefore signals higher affinity.
